Reference: US20250115595A1, “INHIBITORS OF HYPOXIA-INDUCIBLE FACTORS” (The Johns Hopkins University, priority 2021, published 2025)

Legend:
C57BL/6 mice [1] = assay: Safety after systemic (IP) dosing: fundus/angiography, ERG, tissue histology; assay type: in vivo, mouse
Protocol: Fundus photos and fluorescein angiographic images of the retina of C57BL/6 mice on day 30 following 5 daily intraperitoneal (IP) injections (day 0 to day 5) with 32-134D at 40 or 80 mg/kg compared to vehicle control (FIG. 17).
ERG measurements taken in C57BL/6 mice at day 7 (D7) and day 14 (D14) following 5 daily IP injections (day 0 to day 5) with vehicle control (Veh) or 32-134D at 20, 40, or 80 mg/kg/day.
To survey for possible organ damage following systemic administration, three-month-old mice were treated with the 80 mg/kg/day of 32-134D by IP injection for five consecutive days (days 0-4). On day 30, mice were sacrificed, perfused with PBS, and tissues were harvested and fixed in 4% paraformaldehyde (PFA). Harvested tissues included the brain, heart, muscle, liver, spleen, kidney, stomach, small intestine, and large intestine. Tissues were embedded with paraffin, sectioned at […], and stained with hematoxylin and eosin. Images were taken at 20× magnification.
Flash scotopic ERGs: All procedures were performed under dim red light. Mice were dark adapted overnight, anesthetized with ketamine (50 mg/kg) and xylazine (5 mg/kg) and pupils were dilated with a topical drop of tropicamide (1%). Scotopic ERG responses were measured using the Celeris ERG stimulator (Diagnosys, Lowell, MA) at flash intensities of 0.025, 0.25, 2.5, 7.96, and 79.06 cd/s/m2. ERGs were measured simultaneously from both eyes with a ground electrode placed into the forehead between the eyes and a reference electrode into the hip.
Fluorescein angiography in mice: To evaluate the effect of 32-134D on the retinal vasculature and vascular permeability, experimental animals were treated with 5 consecutive daily IP injections with 32-134D at 40 or 80 mg/kg. On day 30, mice were anesthetized using intramuscular injection with ketamine (50 mg/kg) and xylazine (5 mg/kg). Pupils were then dilated using 1% tropicamide eye drops and mice were placed on the imaging platform of the Phoenix Micron III retinal imaging microscope (Phoenix Research Laboratories, Pleasanton, CA). Goniovisc 2.5% (hypromellose; Sigma Pharmaceuticals, LLC, Monticello, IA) was applied liberally to keep the eye moist during imaging studies. Fundus photos were taken before administering 10 to 20 μl of 10% fluorescein sodium (Apollo Ophthalmics, Newport Beach, CA) IP injection. Rapid acquisition of fluorescein angiographic images was then performed for 5 minutes. Fluorescein leakage manifests as indistinct vascular borders progressing to diffusely hazy fluorescence. Fluorescein leakage was compared between different groups by quantifying the fluorescence intensities collected after 1, 2, and 3 minutes following fluorescein injection using ImageJ software (National Institutes of Health, Bethesda, MD).

[2] = system: intratumoral gene expression; assay: RT-qPCR and ELISA of Hepa1-6 tumor tissue; assay type: in vivo, mouse
Protocol: RNA was extracted using TRIzol Reagent (ThermoFisher). Quantitative Real-time PCR was conducted using SYBR Green PCR Master Mix (BioRad) and reactions were run using the BioRad thermal cycler (BioRad). The mRNA expression of target genes was normalized to the expression of 18S rRNA and the fold change (FC) was calculated based on the threshold cycle (Ct) as
Human (EPO, SCF, SDF1a, VEGFA) and mouse (Cxcl1, Cxcl2, Cxcl9, Cxcl10, Il6, Il10, IL22, Vegfa) protein concentrations in tumor homogenates were determined using ELISA kits (Table 4) from Novus Biologicals. Optical density was obtained at 450 nm (corrected for readings at 570 nm) using the VICTOR Nivo plate reader (PerkinElmer). Sample protein concentration was calculated by linear regression from a standard curve.

C57BL/6 mice [3] = assay: Ischemia/reperfusion (I/R) model of vascular permeability; assay type: in vivo, mouse; details: 5 daily IP injections 40 mg/kg
Protocol: The ability of 32-134D to inhibit vascular permeability in retinal vein occlusion patients was evaluated using the ischemia/reperfusion (I/R) model for vascular permeability in ischemic retinal disease. Transient ischemia was induced in the left eye in 8-to-10-week-old male C57BL/6 mice; the right eye was used as the non-I/R control. Following ischemia, mice were treated with 5 daily IP injections of vehicle control or 32-134D at 40 mg/kg. 24 hours after the fifth IP injection, mice were euthanized, Evans blue perfusion was performed, and retina flat mounts were examined for vascular leakage. […] There was no difference between non-/R (healthy) eyes and I/R eyes treated with 32-134D.
Vascular permeability by Evans blue tracer method: Mice were anesthetized with a mixture of ketamine (50 mg/kg) and xylazine (5 mg/kg) and subjected to Evans blue (Sigma) (50 mg/kg) perfusion by penile vein injection. […] Images were captured by Zeiss fluorescent microscope or confocal microscopy and fluorescence quantified by image J software (NIH). […] Blinded quantification of the number of leaking vessels was performed by manual counting major leakage from capillaries from retinas of each group. Non-capillary artifactual Evans blue or FITC-dextran leakage due to flat mount processing as well as minor leakages were not included in the quantitation. […] For quantification, high magnifications (20×) images were taken. […]

HIF-1α and HIF-2α = assay: Immunoblot of HIF-1α and HIF-2α accumulation in hypoxic MIO-M1 cells; assay type: cell-based, human; details: as little as 1 μM, 4 hours
Protocol: It has previously been reported that the cells in the inner nuclear layer of the retina that express VEGF in response to hypoxia/ischemia are Müller glial cells (X. Xin et al., Proc Natl Acad Sci USA 110, E3425-3434 (2013)). […] The effects of 32-134D on HIF-1α accumulation persisted up to 16 hours after treatment of cultured cells (FIG. 27B).
Cells culture and reagents: MIO-M1 cells were a gift from Dr. Astrid Limb (University College London, Institute of Ophthalmology, London, United Kingdom). MIO-M1 and HUVEC cells were cultured in DMEM with 10% (vol/vol) FBS (Quality Biological) and 1% penicillin/streptomycin (Cellgro). Hypoxia chambers were used to expose cells. Evans Blue (E2129) was purchased from Sigma-Aldrich.
Immunoblot assays and ELISAs: Cell, neurosensory retina, and D120 retinal organoid lysates were subjected to 4-15% gradient SDS/PAGE (Invitrogen). Immunoblot assays were performed as previously described (X. Xin et al., 2013, Proc Natl Acad Sci USA 110, E3425-3434).

[4] = 5 daily IP injections 20, 40 or 80 mg/kg/day, D7 and D14

Question: For `Brc1ccc2c(-c3csc(-c4c[nH]c5c(Br)cccc45)n3)c[nH]c2c1` [Compound 32-134D, 4-(6-bromo-1H-indol-3-yl)-2-(7-bromo-1H-indol-3-yl)thiazole], which “tissue histology (brain, heart, muscle, liver, spleen, kidney, stomach, intestines)” value (C57BL/6 mice [1]; 80 mg/kg/day IP for five days, day 30) is on record?
Answer: The value was “no evidence of toxicity”.

Question: What about the “ERG a-wave versus vehicle” value (C57BL/6 mice [1]; [4]) of the same molecule?
Answer: The value was “no statistically significant difference”.

Question: And the “ERG b-wave versus vehicle” value (C57BL/6 mice [1]; [4])?
Answer: Its value is “no statistically significant difference”.

Question: What about the “fundus photos and fluorescein angiography of retina” value (C57BL/6 mice [1]; 5 daily IP injections 40 or 80 mg/kg, day 30) of the same molecule?
Answer: The value was “intact retinal vasculature and absence of capillary leakage”.

Question: And the “tumor mRNAs encoding angiogenic factors and proteins mediating immunosuppression” value ([2]; Angpt14, Epo, Pgf, Vegfa, B7h4, Cd47, Cd70, Cd73, Glut1, Ldha, Pdl1, Tim3, RT-qPCR)?
Answer: Its value is “significantly decreased”.

Question: What about the “Cxcl1, Il10 and Vegfa protein levels in tumors” value ([2]; ELISA on tumor lysates) of the same molecule?
Answer: The value was “significantly decreased levels”.

Question: And the “Cxcl9 and Cxcl10 protein levels in tumors” value ([2]; ELISA on tumor lysates)?
Answer: Its value is “significantly increased levels”.

Question: And the “tumor expression of Cxcl9 and Cxcl10 mRNA” value ([2]; RT-qPCR)?
Answer: Its value is “increased”.

Question: And the “Cxcl1, Il6 and Il10 mRNA levels in tumor tissue” value ([2]; mouse, in vivo)?
Answer: The value was “decreased”.

Question: What about the “IL22 mRNA and protein expression in Hepa1-6 tumors” value ([2]; mouse, in vivo) of the same molecule?
Answer: Its value is “inhibited”.

Question: And the “vascular leakage in I/R eyes (Evans blue)” value (C57BL/6 mice [3])?
Answer: Its value is “significant reduction in vascular leakage”.

Question: And the “HIF-1α and HIF-2α protein accumulation in response to hypoxia” value (HIF-1α and HIF-2α)?
Answer: Its value is “decreased”.
